Assays:
CRTH2 receptor [1] = biological target: T1, CRTH2 receptor (Homo sapiens, UniProt Q9Y5Y4); assay: Functional assay: calcium mobilisation; type: cell-based; set-up: expressed in transfected cells; conditions: CHO-K1 cells co-expressing CRTH2 receptor and Gα16; antagonism of PGD2 at its EC80
T1 sequence (Q9Y5Y4 1-395): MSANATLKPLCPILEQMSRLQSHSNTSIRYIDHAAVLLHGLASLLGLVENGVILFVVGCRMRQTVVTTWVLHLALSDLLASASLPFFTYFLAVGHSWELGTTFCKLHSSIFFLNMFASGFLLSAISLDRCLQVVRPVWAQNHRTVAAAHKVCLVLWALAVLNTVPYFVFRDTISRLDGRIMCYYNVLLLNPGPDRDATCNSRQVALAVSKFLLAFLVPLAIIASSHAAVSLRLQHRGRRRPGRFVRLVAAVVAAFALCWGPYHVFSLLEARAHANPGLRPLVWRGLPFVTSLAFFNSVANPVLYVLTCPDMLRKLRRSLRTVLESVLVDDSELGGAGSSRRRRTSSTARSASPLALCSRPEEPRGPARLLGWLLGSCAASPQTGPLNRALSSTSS
Protocol: Functional Assay: Calcium Mobilisation
Stable CHO-K1 cells co-expressing the CRTH2 receptor and the G-protein Gα16 are seeded (40,000 cells per well in a plating volume of 75 μL in F-12 Hams supplemented with 1% foetal bovine serum) into collagen-coated 96-well, plates 24 hours prior to the assay. The cells are then loaded with a fluorescence-imaging plate reader (FLIPR) calcium kit dye (Calcium 3 kit, Molecular Devices Ltd) containing 5 mM final concentration of probenecid and incubated at 37° C. for 1 hour in a 5% CO2 atmosphere. The fluorescence emission caused by intracellular calcium mobilization elicited by the PGD2 at the CRTH2 receptor is determined with a FLEXstation benchtop scanning and integrated fluid transfer workstation (Molecular Devices Ltd). To detect antagonists and determine compound IC50, compounds are pre-incubated at varying concentrations with the loaded cells for 15 minutes at 37° C., 5% CO2, prior to the addition of the agonist at its EC80 value. Compounds and agonist are added in Hanks balanced salt solution containing 20 mM HEPES and 0.1% BSA). The fractional response values for each well are calculated by subtracting the basal response from the peak response. Results are calculated as the mean of triplicate wells using Excel and XLfit (Microsoft).

CRTH2 receptor [2] = biological target: T1, CRTH2 receptor; assay: Radioligand binding assay ([3H]-PGD2 displacement, SPA); set-up: expressed in transfected cells; host or cells: HEK cell membranes; conditions: HEK cell membranes expressing the CRTH2 receptor, 1 nM [3H]-PGD2; Ki from IC50 by Cheng-Prusoff
Outline: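 HEK cell membranes expressing CRTH2 were incubated with WGA SPA beads and 1 nM [3H]-PGD2 for 3 hours at room temperature in BES buffer pH 7.4 with MnCl2, 1% DMSO. Non-specific binding was defined with 10 μM unlabeled PGD2. IC50 came from 6-point duplicate curves and was converted to Ki by Cheng-Prusoff.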

Row | IC50 (CRTH2 receptor [1]) [nM] | Ki (CRTH2 receptor [2]) [nM] | SMILES
1 | < 100 | < 100 | Cc1nc2c(Cl)ccc(CC(=O)O)c2c(C)c1Sc1ccc(Cl)cc1 [Example 12, [8-chloro-3-(4-chlorophenylsulfanyl)-2,4-dimethylquinolin-5-yl]acetic Acid]
2 | < 100 | < 100 | Cc1nc2c(Cl)ccc(OCC(=O)O)c2c(OC(F)F)c1Cc1ccc(F)cc1 [Example 18, [8-chloro-4-difluoromethoxy-3-(4-fluorobenzyl)-2-methylquinolin-5-yloxy]acetic acid]
3 | < 1000 | < 100 | Cc1nc2c(Cl)ccc(OCC(=O)O)c2c(C)c1Cc1ccc(S(C)(=O)=O)cc1 [Example 20, [8-chloro-3-(4-methanesulfonylbenzyl)-2,4-dimethylquinolin-5-yloxy]acetic Acid]
4 | < 1000 | < 10000 | Cc1nc2c(Cl)ccc(-c3nnn[nH]3)c2c(C)c1Cc1ccc(Cl)cc1 [Example 42, 8-chloro-3-(4-chlorobenzyl)-2,4-dimethyl-5-(1H-tetrazol-5-yl)quinoline]
